These results are taken from patent US4017639A, “2-Hydroxy-3-nitro-1,4-naphthoquinones for the prophylaxis of certain allergies” (Beecham Group Limited, priority 1974, dated 1977).

As a reminder, the inhibition in vivo is the percentage by which the read-out fell short of the control.

The assay deals with PCA response. As to the kind of experiment: rat Passive Cutaneous Anaphylaxis Test (PCA test). The format is in vivo, rat (male Wistar). Conditions: sc, subcutaneous, as sodium salt. As to the method: All of the compounds of the formula (I) prepared in the preceding examples were tested in the rat Passive Cutaneous Anaphylaxis Test (PCA test) described below. They were administered as their sodium salts either in pH 7.2 phosphate buffer (for soluble salts) or as a suspension in 1% methyl cellulose (for insoluble salts).
Male Wistar rats of 250-300 g were injected intraperitoneally with 0.5 ml. of Bordatella pertussis vaccine (containing 4 × 10^10 dead organism per ml) and subcutaneously with 0.5 ml. of an emulsion of 100 mg of ovalbumin in 2 ml. of saline and 3 ml. of incomplete Freunds' adjuvant. Rats were bled by cardiac puncture on day 18, the blood was pooled and separated and serum stored at -20° and thawed only once before use.
0.1 ml. of each of six twofold serial dilutions of the serum in 0.9% saline were injected intradermally into separate sites on the shaved dorsal surface of 250-350 g. Male Wister rats. 72 hours later the animals were challenged by i.v. injection of 0.3 ml. of 1% ovalbumin mixed with 0.1 ml. of a 5% solution of pontamine sky blue dye both in isotonic saline buffered with pH 7.2 Sorenson buffer (P.B.S.). The rats were killed after 20 minutes and the diameter of the blue wheals at the antibody injection sites were measured. The starting dilution of the serum was adjusted so that there was no response, after challenge, at the site of injection of the highest dilution and a maximum response at the two or three lowest dilutions.
Amounts of the compounds were administered to rats by subcutaneous injection, into the nucal region, of a solution of the compound in P.B.S. or as a suspension in 1% methyl cellulose, each amount to a test group of six animals at a specified time prior to intravenous challenge with ovalbumin.
For those compounds having insoluble sodium salts, the salts were isolated by reaction of the free nitro compound with 2.5N sodium hydroxide and the filtered sodium salt washed free of alkali with water. The dried salts were then administered as a suspension in 1% methyl cellulose.

The mark [1] stands for this setting: 0.5 h, time 30 mins before challenge.
The mark [2] stands for this setting: 10 min, time 10 mins before challenge.

Structures are written as SMILES.

For `O=C1C(O)=C([N+](=O)[O-])C(=O)c2ccccc21` [Example 1, 2-Hydroxy-3-nitro-1,4naphthoquinone], under setting [1], the inhibition in vivo at 25 mg/kg came to 16% and the inhibition in vivo at 100 mg/kg was found to be 30%.
For `Cc1ccc2c(c1)C(=O)C([N+](=O)[O-])=C(O)C2=O` [Example 2, 2-Hydroxy-6-methyl-3-nitro-1,4-naphthoquinone], under setting [1], the inhibition in vivo at 25 mg/kg amounted to 33% and the inhibition in vivo at 100 mg/kg was determined as 30%.
In the case of `O=C1C([N+](=O)[O-])=C(O)C(=O)c2c(O)cccc21` [Example 3, 3,5-Dihydroxy-2-nitro-1,4-naphthoquinone], under setting [1], the inhibition in vivo at 25 mg/kg turned out to be 14%. The inhibition in vivo at 72 mg/kg (0.5 h, dose 72 mg/Kg, time 30 mins before challenge) was found to be 18%.
As to `Cc1cccc2c1C(=O)C(O)=C([N+](=O)[O-])C2=O` [Example 4, 3-Hydroxy-5-methyl-2-nitro-1,4-naphthoquinone], the inhibition in vivo at 0.5 mg/kg (10 min, dose 0.5 mg/Kg, time 10 mins before challenge) was determined as 6%. Further, under setting [2], the inhibition in vivo at 1 mg/kg turned out to be 16%, the inhibition in vivo at 2 mg/kg came out at 16% and the inhibition in vivo at 4 mg/kg is 29%.
On to `COc1ccc2c(c1)C(=O)C(O)=C([N+](=O)[O-])C2=O` [Example 5, 3-Hydroxy-6-methoxy-2-nitro-1,4-naphthoquinone], for which, under setting [2], the inhibition in vivo at 5 mg/kg was 22%, the inhibition in vivo at 10 mg/kg turned out to be 41%, the inhibition in vivo at 20 mg/kg was found to be 65% and the inhibition in vivo at 40 mg/kg amounted to 85%.
In the same order, the values of `Cc1ccc2c(c1)C(=O)C(O)=C([N+](=O)[O-])C2=O` [Example 6, 3-Hydroxy-6-methyl-2-nitro-1,4-naphthoquinone] are 19%, 36%, 33% and 52%.
Turning to `Cc1cc2c(cc1C)C(=O)C([N+](=O)[O-])=C(O)C2=O` [Example 7, 6,7-Dimethyl-2-hydroxy-3-nitro-1,4-naphthoquinone], under setting [1], the inhibition in vivo at 25 mg/kg worked out at 18% and the inhibition in vivo at 100 mg/kg was determined as 27%.
`CCOc1ccc2c(c1)C(=O)C(O)=C([N+](=O)[O-])C2=O` [Example 8, 6-Ethoxy-3-hydroxy-2-nitro-1,4-naphthoquinone]: under setting [2], the inhibition in vivo at 5 mg/kg worked out at 25%, the inhibition in vivo at 10 mg/kg was determined as 28%, the inhibition in vivo at 20 mg/kg came to 54% and the inhibition in vivo at 40 mg/kg was determined as 79%.
In the same order, the values of `COc1cc2c(cc1OC)C(=O)C([N+](=O)[O-])=C(O)C2=O` [Example 9, 6.7-Dimethoxy-2-hydroxy-3-nitro-1,4-naphthoquinone] are 28%, 39%, 75% and 84%.
As to `O=C1C(O)=C([N+](=O)[O-])C(=O)c2ccc(Br)cc21` [Example 10, 6-Bromo-3-hydroxy-2-nitro-1.4-naphthoquinone], the inhibition in vivo at 100 mg/kg amounted to 5% under setting [2] and 13% under setting [1].
In the same order, the values of `O=C1C(O)=C([N+](=O)[O-])C(=O)c2ccc(F)cc21` [Example 11, 6-Fluoro-3-hydroxy-2-nitro-1,4-naphthoquinone] are 13% and 16%.
For `CCc1cc2c(cc1CC)C(=O)C([N+](=O)[O-])=C(O)C2=O` [Example 12, 6,7-Diethyl-2-hydroxy-3-nitro-1,4-naphthoquinone], under setting [2], the inhibition in vivo at 1 mg/kg was determined as 11%, the inhibition in vivo at 2 mg/kg is 23% and the inhibition in vivo at 4 mg/kg turned out to be 26%. Moreover, the inhibition in vivo at 8 mg/kg (10 min, dose 8 mg/Kg, time 10 mins before challenge) came to 55%.
In the case of `O=C1C(O)=C([N+](=O)[O-])C(=O)c2cc3c(cc21)CCCC3` [Example 13, 2-Hydroxy-3-nitro-6,7-tetramethylene-1,4-naphtoquinone], under setting [2], the inhibition in vivo at 5 mg/kg is 72%, the inhibition in vivo at 10 mg/kg was determined as 80%, the inhibition in vivo at 20 mg/kg was 87% and the inhibition in vivo at 40 mg/kg came to 90%.
Consider `O=C1C(O)=C([N+](=O)[O-])C(=O)c2ccc(-c3ccccc3)cc21` [Example 14, 2-Hydroxy-3-nitro-7-phenyl-1,4-naphthoquinone], for which, under setting [2], the inhibition in vivo at 10 mg/kg is 20%, the inhibition in vivo at 20 mg/kg worked out at 12% and the inhibition in vivo at 40 mg/kg was 23%. Besides, the inhibition in vivo at 80 mg/kg (10 min, dose 80 mg/Kg, time 10 mins before challenge) was found to be 23%.
